Measured values as given in patent US11332459B2 (TEIJIN PHARMA LIMITED, priority 2017, dated 2022).
Structures can show the parent of a compound that is named as a salt.

Biological target: T1, human TRPC6 (Homo sapiens, UniProt Q9Y210)
T1 construct: expressed in transfected cells
T1 sequence (Q9Y210 1-931): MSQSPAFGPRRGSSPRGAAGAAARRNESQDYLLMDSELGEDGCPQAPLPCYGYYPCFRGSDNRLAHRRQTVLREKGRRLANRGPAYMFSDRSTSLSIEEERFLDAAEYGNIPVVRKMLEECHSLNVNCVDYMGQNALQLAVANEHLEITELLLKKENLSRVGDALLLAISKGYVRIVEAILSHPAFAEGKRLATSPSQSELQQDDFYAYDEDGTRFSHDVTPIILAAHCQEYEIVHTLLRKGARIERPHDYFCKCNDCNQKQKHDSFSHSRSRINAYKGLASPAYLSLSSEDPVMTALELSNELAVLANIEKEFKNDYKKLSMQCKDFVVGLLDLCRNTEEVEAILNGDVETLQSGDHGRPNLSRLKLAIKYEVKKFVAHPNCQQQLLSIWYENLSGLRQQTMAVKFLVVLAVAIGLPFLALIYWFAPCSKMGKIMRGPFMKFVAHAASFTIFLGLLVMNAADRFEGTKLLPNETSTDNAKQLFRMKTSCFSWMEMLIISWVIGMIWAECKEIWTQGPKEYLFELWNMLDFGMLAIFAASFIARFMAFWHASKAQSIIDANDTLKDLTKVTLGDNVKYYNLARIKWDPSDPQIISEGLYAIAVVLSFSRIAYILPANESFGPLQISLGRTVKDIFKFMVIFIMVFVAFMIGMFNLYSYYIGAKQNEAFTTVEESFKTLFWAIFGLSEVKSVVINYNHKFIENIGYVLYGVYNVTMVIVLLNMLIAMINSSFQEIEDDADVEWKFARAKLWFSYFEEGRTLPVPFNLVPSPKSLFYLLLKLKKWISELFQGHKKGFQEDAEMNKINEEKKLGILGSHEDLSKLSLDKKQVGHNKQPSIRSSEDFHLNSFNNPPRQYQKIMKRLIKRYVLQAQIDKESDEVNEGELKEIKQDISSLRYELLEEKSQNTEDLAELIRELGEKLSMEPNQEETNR
Test: TRPC6 calcium flux assay (FLIPR, OAG-stimulated calcium influx)
Assay type: cell-based
Conditions: HEK293 cells stably transfected with human TRPC6, read-out: hTRPC6 Potency
Outline: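 IC50 derived by plotting background-corrected peak fluorescence (180 s window, normalized to OAG-triggered signal vs buffer) against dose. Stable human TRPC6 HEK293 line was dye-loaded, exposed to compound 25 min, then challenged with 50 uM final OAG in 2 mM Ca2+ HEPES buffer pH 7.2, 0.5% DMSO.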

| Structure (SMILES) | IC50 [nM] |
| --- | --- |
| N#Cc1ccc(Cn2c(N3CC[C@@H](F)[C@H](N)C3)nc3cc(C(F)(F)F)cnc32)nc1 [Example 519, 6-((2-((3R,4R)-3-amino-4-fluoropiperidin-1-yl)-6-(trifluoromethyl)-3H-imidazo[4,5-b]pyridin-3-yl)methyl)nicotinonitrile] | 476 |
| N[C@@H]1CCCN(c2nc3ccccc3n2Cc2ccc(Cl)cc2)C1 [Example 377, (R)-1-(1-(4-chlorobenzyl)-1H-benzo[d]imidazol-2-yl)piperidin-3-amine] | 1650 |
| CN(CC(F)(F)F)C(=O)Cn1c(N2CCC(F)(F)[C@H](N)C2)nc2ccc(F)cc21 [Example 465, (R)-2-(2-(3-amino-4,4-difluoropiperidin-1-yl)-6-fluoro-1H-benzo[d]imidazol-1-yl)-N-methyl-N-(2,2,2-trifluoroethyl)acetamide] | 86.7 |
| CN(C(=O)Cn1c(N2CC[C@@H](F)[C@H](N)C2)nc2ccc(F)cc21)[C@@H]1CCOC1 [Example 665, 2-(2-((3R,4R)-3-amino-4-fluoropiperidin-1-yl)-6-fluoro-1H-benzo[d]imidazol-1-yl)-N-methyl-N-((R)-tetrahydrofuran-3-yl)acetamide] | 584 |
| N#Cc1ccc(Cn2c(N3CCC(F)(F)[C@H](N)C3)nc3c(C(F)(F)F)cccc32)nc1 [Example 89, (R)-6-((2-(3-amino-4,4-difluoropiperidin-1-yl)-4-(trifluoromethyl)-1H-benzo[d]imidazol-1-yl)methyl)nicotinonitrile] | 368 |
| CN(C)C(=O)Cn1c(N2CC[C@@H](F)[C@H](N)C2)nc2cc(F)ccc21 [Example 576, 2-(2-((3R,4R)-3-amino-4-fluoropiperidin-1-yl)-5-fluoro-1H-benzo[d]imidazol-1-yl)-N,N-dimethylacetamide] | 169 |
| N#Cc1ccc(Cn2c(N3CC[C@@H](F)[C@H](N)C3)nc3cc(F)c(F)cc32)nc1 [Example 72, 6-((2-((3R,4R)-3-amino-4-fluoropiperidin-1-yl)-5,6-difluoro-1H-benzo[d]imidazol-1-yl)methyl)nicotinonitrile] | 0.448 |
| CN1CC[C@@H](n2c(N3CC[C@@H](F)[C@H](N)C3)nc3cc(F)c(F)cc32)C1=O [Example 246, (R)-3-(2-((3R,4R)-3-amino-4-fluoropiperidin-1-yl)-5,6-difluoro-1H-benzo[d]imidazol-1-yl)-1-methylpyrrolidin-2-one] | 2920 |
| N#CC1CN(C(=O)Cn2c(N3CC[C@@H](F)[C@H](N)C3)nc3cc(F)c(F)cc32)CCO1 (mixture of isomers) [Example 627, 4-(2-(2-((3R,4R)-3-amino-4-fluoropiperidin-1-yl)-5,6-difluoro-1H-benzo[d]imidazol-1-yl)acetyl)morpholine-2-carbonitrile] | 122 |
| C[C@H](c1cc(Cl)ccc1Cl)n1c(N2CC[C@@H](F)[C@H](N)C2)nc2cc(F)c(F)cc21 [Example 328, (3R,4R)-1-(1-((1R)-1-(2,5-dichlorophenyl)ethyl)-5,6-difluoro-1H-benzimidazol-2-yl)-4-fluoro-3-piperidinamine] | > 3750 |
| N[C@@H]1CN(c2nc3ccccc3n2Cc2ccc(Cl)cn2)CC[C@@H]1F [Example 86, (3R,4S)-1-(1-((5-chloropyridin-2-yl)methyl)-1H-benzo[d]imidazol-2-yl)-4-fluoropiperidin-3-amine hydrochloride] | 1.37 |
| N[C@@H]1CN(c2nc3cc(F)c(F)cc3n2CC(=O)N2Cc3cccnc3C2)CC[C@H]1F [Example 632, 2-(2-((3R,4R)-3-amino-4-fluoropiperidin-1-yl)-5,6-difluoro-1H-benzo[d]imidazol-1-yl)-1-(5H-pyrrolo[3,4-b]pyridin-6(7H)-yl)ethanone] | 230 |
| N#Cc1ccc(Cn2c(N3CC[C@H](O)[C@H](N)C3)nc3ccc(Cl)cc32)nc1 [Example 153, 6-((2-((3R,4S)-3-amino-4-hydroxypiperidin-1-yl)-6-chloro-1H-benzo[d]imidazol-1-yl)methyl)nicotinonitrile] | 72 |
| N[C@@H]1CN(c2nc3cc(F)c(F)cc3n2[C@@H]2CCN(C3CCOCC3)C2=O)CC[C@H]1F [Example 550, (R)-3-(2-((3R,4R)-3-amino-4-fluoropiperidin-1-yl)-5,6-difluoro-1H-benzo[d]imidazol-1-yl)-1-(tetrahydro-2H-pyran-4-yl)pyrrolidin-2-one] | > 3750 |
| NC(=O)c1cnc(Cn2c(N3CC[C@H](F)[C@H](N)C3)nc3ccc(C(F)(F)F)cc32)cn1 [Example 122, 5-((2-((3R,4S)-3-amino-4-fluoro-1-piperidinyl)-6-(trifluoromethyl)-1H-benzimidazol-1-yl)methyl)-2-pyrazinecarboxamide] | 29.9 |
| N#Cc1ccc(Cn2c(N3CC[C@@H](F)[C@H](N)C3)nc3c(Cl)cc(F)cc32)nc1 [Example 144, 6-((2-((3R,4R)-3-amino-4-fluoropiperidin-1-yl)-4-chloro-6-fluoro-1H-benzo[d]imidazol-1-yl)methyl)nicotinonitrile 2,2,2-trifluoroacetate] | 0.462 |
| N[C@@H]1CN(c2nc3cc(F)c(F)cc3n2[C@H]2CCN(C3CC3)C2=O)CC[C@H]1F [Example 549, (S)-3-(2-((3R,4R)-3-amino-4-fluoropiperidin-1-yl)-5,6-difluoro-1H-benzo[d]imidazol-1-yl)-1-cyclopropylpyrrolidin-2-one] | 410 |
| N#Cc1ccc(Cn2c(N3CC[C@H](F)[C@H](N)C3)nc3cc(C(F)(F)F)ccc32)nc1 [Example 107, 6-((2-((3R,4S)-3-amino-4-fluoro-1-piperidinyl)-5-(trifluoromethyl)-1H-benzimidazol-1-yl)methyl)-3-pyridinecarbonitrile] | 7.88 |
| CN(C)C(=O)Cn1c(N2CC[C@H](F)[C@H](N)C2)nc2ccc(Cl)cc21 [Example 461, 2-(2-((3R,4S)-3-amino-4-fluoropiperidin-1-yl)-6-chloro-1H-benzo[d]imidazol-1-yl)-N,N-dimethylacetamide] | 28.9 |
| N[C@@H]1CN(c2nc3cc(F)c(F)cc3n2CC(=O)N2CCCC(C(F)(F)F)C2)CC[C@H]1F (mixture of isomers) [Example 504, 2-(2-((3R,4R)-3-amino-4-fluoropiperidin-1-yl)-5,6-difluoro-1H-benzo[d]imidazol-1-yl)-1-(3-(trifluoromethyl)piperidin-1-yl)ethan-1-one] | 39.3 |
| Cc1nc(Cn2c(N3CC[C@@H](F)[C@H](N)C3)nc3cc(F)c(F)cc32)oc1C [Example 575, (3R,4R)-1-(1-((4,5-dimethyloxazol-2-yl)methyl)-5,6-difluoro-1H-benzo[d]imidazol-2-yl)-4-fluoropiperidin-3-amine] | 155 |
| N#Cc1ccc(Cn2c(N3CCC(F)(F)[C@H](N)C3)nc3c(F)cc(F)cc32)nc1 [Example 87, (R)-6-((2-(3-amino-4,4-difluoropiperidin-1-yl)-4,6-difluoro-1H-benzo[d]imidazol-1-yl)methyl)nicotinonitrile hydrochloride] | 0.931 |
| N#Cc1ccc(Cn2c(N3CC[C@H](F)[C@H](N)C3)nc3c(Cl)cccc32)nc1 [Example 5] | 2.92 |
| N[C@@H]1CN(c2nc3cc(F)c(F)cc3n2CC(=O)N2CCNC(=O)C2)CC[C@H]1F [Example 528, 4-(2-(2-((3R,4R)-3-amino-4-fluoropiperidin-1-yl)-5,6-difluoro-1H-benzo[d]imidazol-1-yl)acetyl)piperazin-2-one] | > 3750 |
| COc1cc(F)cc2nc(N3CC[C@@H](F)[C@H](N)C3)n(CC(=O)N3CCOCC3)c12 [Example 546, 2-(2-((3R,4R)-3-amino-4-fluoropiperidin-1-yl)-5-fluoro-7-methoxy-1H-benzo[d]imidazol-1-yl)-1-morpholinoethan-1-one] | > 3750 |
| C[C@H](c1ccc(C#N)cc1)n1c(N2CCC[C@H](N)C2)nc2ccccc21 [Example 313, 4-((R)-1-(2-((S)-3-aminopiperidin-1-yl)-1H-benzo[d]imidazol-1-yl)ethyl)benzonitrile hydrochloride] | 15800 |
| N[C@@H]1CN(c2nc3cc(Cl)ccc3n2CC(=O)N2CCOCC2)CC[C@H]1F [Example 497, -(2-((3R,4R)-3-amino-4-fluoropiperidin-1-yl)-5-chloro-1H-benzo[d]imidazol-1-yl)-1-morpholinoethanone] | 94 |
| N#Cc1ccc(Cn2c(N3CC[C@@H](F)[C@H](N)C3)nc3ncccc32)cc1 (single isomer, unassigned) [Example 415] | 274 |
| C[C@@H](c1ccc(C#N)cn1)n1c(N2CC[C@@H](F)[C@H](N)C2)nc2ccccc21 [Example 298, 6-((S)-1-(2-((3R,4R)-3-amino-4-fluoropiperidin-1-yl)-1H-benzo[d]imidazol-1-yl)ethyl)nicotinonitrile hydrochloride] | 17.2 |
